Measured values: US9242948B2, “Diepoxy compound, process for producing same, and composition containing the diepoxy compound” (Sumitomo Chemical Company, Limited, priority 2009, dated 2016)

Experiment: Measurement of solubility in methyl isobutyl ketone
Format: physicochemical
Settings: for Solubility: compound (g)×100/[compound (g)+methyl isobutyl ketone (g)]; for Solubility relative to that of the compound represented by the formula (A): from Table 1
Protocol: <Measurement of Solubility>
by the formula (1-1) which was obtained in Example 2, the compound represented by the formula (1-2) which was obtained in Example 6, and the compound represented by the following formula (A)
[drawing 31] (compound (g)×100/[compound (g)+methyl isobutyl ketone (g)], % by weight) were measured.

Row | Structure (SMILES) | Solubility (40° C.) [% by weight] | Solubility (65° C.) [% by weight] | Solubility relative to that of the compound represented by the formula (A)
1 | O=C(OC1CCC(c2ccc(OCC3CO3)cc2)CC1)c1ccc(OCC2CO2)cc1 (centres unmarked) [formula (1-1), 4-{4-(2,3-epoxypropoxy)phenyl}cyclohexyl 4-(2,3-epoxypropoxy)benzoate] | 2.36 | 4.16 | more than twice as big
2 | Cc1cc(C(=O)OC2CCC(c3ccc(OCC4CO4)cc3)CC2)ccc1OCC1CO1 (centres unmarked) [formula (1-2), 4-{4-(2,3-epoxypropoxy)phenyl}cyclohexyl 4-(2,3-epoxypropoxy)-3-methylbenzoate] | 2.01 | 4.70 | more than twice as big
3 | Cc1cc(OC(=O)c2ccc(OCC3CO3)cc2)ccc1OC(=O)c1ccc(OCC2CO2)cc1 (centres unmarked) [formula (A), reference compound] | 1.10 | 2.00 | –
